Data as given in PubChem BioAssay (NCI).
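1) Cells in 96-well plates. 2) Compound, 48 h, 5 concentrations. 3) Linear interpolation between surrounding doses. 4) Unreached endpoint = highest concentration. GI50: concentration for 50% inhibition of growth. TGI denotes the concentration required for complete inhibition of growth.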

Experiments:
Assay in all cases: NCI-60 cell line screen, 48 h
K-562 leukemia = tested on: K-562 leukemia
U251 CNS = tested on: U251 CNS
OVCAR-5 ovarian = tested on: OVCAR-5 ovarian
A498 renal = tested on: A498 renal
SN12C renal = tested on: SN12C renal
SR leukemia = tested on: SR leukemia
HCC-2998 colon = tested on: HCC-2998 colon
NCI-H460 lung = tested on: NCI-H460 lung
SNB-75 CNS = tested on: SNB-75 CNS
MDA-MB-231 breast = tested on: MDA-MB-231 breast

Row | SMILES | GI50 (K-562 leukemia) [µM] | TGI (K-562 leukemia) [µM] | GI50 (U251 CNS) [µM] | TGI (U251 CNS) [µM] | GI50 (OVCAR-5 ovarian) [µM] | TGI (OVCAR-5 ovarian) [µM] | GI50 (A498 renal) [µM] | TGI (A498 renal) [µM] | GI50 (SN12C renal) [µM] | TGI (SN12C renal) [µM] | GI50 (SR leukemia) [µM] | TGI (SR leukemia) [µM] | GI50 (HCC-2998 colon) [µM] | TGI (HCC-2998 colon) [µM] | GI50 (NCI-H460 lung) [µM] | TGI (NCI-H460 lung) [µM] | TGI (SNB-75 CNS) [µM] | GI50 (SNB-75 CNS) [µM] | GI50 (MDA-MB-231 breast) [µM] | TGI (MDA-MB-231 breast) [µM]
1 | Cc1ccc(N2C(=O)C(Cl)=C(Nc3cccc(O)c3)C2=O)cc1Cl | 18.9 | 52.8 | 15.7 | 31 | 16.5 | 31.9 | 12.4 | 25.5 | 19.7 | 44.1 | 8.06 | 30.4 | 14.5 | 29.6 | 11.6 | 26.7 |  |  |  | 
2 | CCCN(CCCCC(NC(C)=O)C(=O)NCc1ccccc1)C(=O)NC (centres undefined) |  | > 100 |  | > 100 |  | > 100 |  | > 100 |  | > 100 |  |  |  | > 100 |  | > 100 | > 100 |  |  | 
3 | CC/C=C\C[C@H](O)C/C=C1/C(=O)C=C[C@@H]1C/C=C\CCCC(N)=O |  |  | 1.5 | 4.12 | 3.89 | 11.8 | 2.9 | 7.07 | 2.32 | 6.43 |  |  | 1.98 | 3.7 | 2.27 | 6.97 | 22.3 | 10.5 | 4.2 | 15.2
4 | C=C1C(=O)O[C@H]2[C@H]1CC/C(COC(=O)c1ccc(C(=O)O)s1)=C\CC[C@@]1(C)O[C@@H]21 | 1.47 | > 100 | 2.61 | 8.37 | 3.05 | 10.1 | 7.5 | 20.3 | 1.74 | 3.5 |  |  | 3.47 | 11.5 | 3.33 | 10.8 |  |  | 1.6 | 3.06
5 | Cn1nnnc1[N-]Cc1ccccc1.[Au+].c1ccc([PH+](c2ccccc2)c2ccccc2)cc1 |  |  | 3.41 | 11.8 | 14.8 | 28.4 |  |  | 5.01 | 17 |  |  | 8.55 | 21.8 | 19.1 | 65.7 | 20.5 | 7.92 |  | 
6 | COC(=O)/C(=N/NC(C)(C)C)C(C(=O)C=C(C)C)C(=O)C(=O)Nc1ccc(Cl)cc1C (centres undefined) |  | > 100 |  | > 100 |  | > 100 |  | > 100 |  | > 100 |  | > 100 |  | > 100 |  | > 100 |  |  |  | 
7 | OCC1OC(N2C=C(c3nc4ccccc4s3)C3C=CC=CC32)C(O)C1O (centres undefined) | 16.3 | > 50 | 6 | 14.8 | 11.3 | 32.7 | 7.91 | 17.7 | 11.1 | 34.3 | 2.34 | > 50 |  |  | 9.91 | > 50 | 26 | 7.8 | 11.3 | 30.2
8 | CCOC(=O)c1c2ccc(/C=C/C(=O)OC)ccc-2c(C(=O)OCC)c1N |  | > 100 |  |  |  | > 100 |  | 49.4 |  |  |  |  |  | > 100 |  | > 100 | > 100 |  |  | 
9 | CC(SC1=CC(=O)c2c(O)ccc(O)c2C1=O)C(=O)O (centres undefined) |  | 40.7 |  | > 60.1 |  | > 100 |  | > 100 |  | > 77.7 |  | > 100 |  | > 100 |  | > 100 | > 75.9 |  |  | 
10 | CN(C)CCNC(=O)c1cc([N+](=O)[O-])cc2ccc(-c3ccccc3)nc12 |  | 54.1 |  | 32 |  | 27.6 |  | 14.4 |  | > 62.7 |  |  |  | 20.3 |  | 12.8 | 23.8 |  |  | 
11 | CCN(CC)CC(C)Nc1ccc(C)c2sc3ccccc3c(=O)c12 (centres undefined) | 0.216 | 3.15 | 3.43 | 16.3 | 2.95 | 12.4 | 1.92 | 8.07 | 6.77 | 21 |  |  | 3.19 | 15 | 2.05 | 8.25 | 10.8 | 2.2 | 2.42 | 8.99
12 | O=C1c2cccc3cc([N+](=O)[O-])cc(c23)C(=O)N1CCCN1CCN(CCCN2C(=O)c3cccc4cc([N+](=O)[O-])cc(c34)C2=O)CC1 |  | > 100 |  | 19.3 |  | > 100 |  | 3.87 |  | > 100 |  |  |  | 54.3 |  | > 100 | 9.54 |  |  | 
13 | [Cl][Sn]([c]1ccccc1)[c]1ccccc1 | 2.14 | 7.31 | 10.3 | 23.2 | 13.6 | 27.3 |  |  | 9.18 | 22.9 | 3.39 | 17.5 | 14.1 | 27.8 | 18.3 | 38.7 | 19.4 | 6.18 |  | 
14 | C=C1C(O)C2C(=C(CC(C)C)C13CC3)C(=O)C(C)(C)C2OC (centres undefined) | 81.5 | > 100 | > 100 | > 100 | > 100 | > 100 | > 100 | > 100 | > 100 | > 100 | 82.9 | > 100 |  |  | > 100 | > 100 |  |  | > 100 | > 100
15 | Cn1cc(NC(=O)c2cc(NC(=O)CCCCCC(=O)Nc3cc(C(=O)Nc4cc(C(=O)NCCC(=N)N)n(C)c4)n(C)c3)cn2C)cc1C(=O)NCCC(=N)N |  | > 100 |  | > 100 |  | > 100 |  | > 100 |  | > 100 |  |  |  | > 100 |  | > 100 | > 100 |  |  | 
16 | O=C1C=C(c2cc(Br)c(O)c(Br)c2)/C(=C/c2cc(Br)c(O)c(Br)c2)O1 | 24 | > 75 | 26.4 | > 75 | 64.8 | > 75 | 20.1 | 57.2 | 36.5 | > 75 |  |  | 56.1 | > 75 | 24.1 | > 75 | > 75 | 39 | 32 | > 75
17 | CCCN(CCC)c1c([N+](=O)[O-])cc(S(N)(=O)=O)cc1[N+](=O)[O-] |  | 35.7 |  | 26.9 |  | 37.9 |  |  |  | 31.6 |  | 57.4 |  | 33.2 |  | 29.4 | 32.4 |  |  | 
